Measurements published in patent US8357365B2, “Granulysin peptides and methods of use thereof” (The Regents of the University of California, priority 2005, dated 2013).
“Also recorded” adds a separate entry of the source.

What was measured:
[1] = tested on: Mycobacterium tuberculosis; details: earlier study, Ernst et al., 2000; cited from earlier work
Escherichia coli = details: earlier study, Ernst et al., 2000; cited from earlier work
[2] = tested on: Propionibacterium acnes strain ATCC 6919; experiment: CFU assay of antimicrobial activity against P. acnes; assay type: cell-based; details: for reduction of the number of viable P. acnes: 100 μM of peptide (FIG. 1B)
Description: CFU assay. The CFU assay was performed as described previously (Ernst et al., (2000) Immunol 165:7102-7108). Propionibacterium acnes strain ATCC 6919 (American Type Cell Culture, Manassas, Va.) was grown under anaerobic conditions in Reinforced Clostridial Medium (Oxoid, Basingstroke, England) for two days and collected in mid-log phase. The bacteria were washed three times with the assay buffer, 10 mM sodium phosphate, pH 7.2, supplemented with 0.03% trypticase soy broth (TSB, Becton-Dickinson, Cockeysville, Md.), and enumerated by applying a conversion factor of 7.5×10^7 bacteria/mL=1 OD unit at 600 nm. Various concentrations of granulysin or granulysin peptides were incubated with 3.75×10^5 bacteria in a final volume of 30 μL at 37° C. for four hours. […] Plates were incubated for four days at 37° C. under anaerobic conditions, then individual colonies were counted and the number of CFU per tube was calculated.

[3] = tested on: inflammatory cytokines and chemokines; experiment: P. acnes-stimulated production of cytokines and chemokines by monocytes; assay type: cell-based; details: primary human monocytes (FIG. 5)
Description: (§1) Primary Human Monocyte Isolation and Stimulation. Peripheral human blood was drawn from normal healthy volunteers into heparinized tubes according to a protocol approved by the Institutional Review Board at UCLA. PBMCs were then isolated on Ficoll-Paque gradients (Pharmacia, Piscataway, N.J.) and plated (5×10^5/well) in 96-well plates for 2 hours in 1% FCS (Omega Scientific, Tarzana, Calif.). Non-adherent cells were removed by washing 3 times with RPMI media, leaving adherent cells. Adherent monocytes were cultured in 10% FCS with P. acnes sonicate, granulysin peptides, or P. acnes sonicate together with various concentrations of granulysin peptide for 24 hours at 37° C. Monocyte supernatants were harvested and assayed for IL-12p40 using cytokine-specific, commercially available antibody pairs in a standard sandwich ELISA (Biosource International, Camarillo, Calif., or BD PharMingen, San Diego, Calif.). Capture antibodies were coated to 96-well EIA/RIA plates (Costar, Corning) and detection was achieved by incubating with biotinylated antibodies followed by Immunopure HRP-conjugated streptavidin (Pierce, Rockford, Ill.) and the ABTS Microwell Peroxidase Substrate System (Kirkegaard & Perry Laboratories, Gaithersburg, Md.). The absorbance at 405 nm was read using a microtiter plate reader, and cytokine concentrations were calculated from a standard curve of recombinant cytokine (Biosource or Pharmingen). Supernatants were assayed for other cytokines using Pierce SearchLight Multiplex Cytokine array services (Pierce Biotechnology, Woburn, Mass.).

IP-10 = experiment: Cytokine array, P. acnes-stimulated monocytes, IP-10; assay type: cell-based, human
Description: as §1, with “Capture antibodies were coated to 96-well EIA/RIA plates (Costar, Corning) and detection was achieved by incubating with biotinylated antibodies followed by Immunopure HRP-conjugated streptavidin (Pierce, Rockford, Ill.) and the ABTS Microwell Peroxidase Substrate System (Kirkegaard & Perry Laboratories, Gaithersburg, Md.).” left out, “Supernatants were assayed for other cytokines using Pierce SearchLight Multiplex Cytokine array services (Pierce Biotechnology, Woburn, Mass.).” left out

IL-12p40 = IL-12p40 ELISA, P. acnes-stimulated primary human monocytes; assay type: cell-based; details: compared to peptides 1-20 and 16-35 (FIG. 5A)
Description: as §1, with “Capture antibodies were coated to 96-well EIA/RIA plates (Costar, Corning) and detection was achieved by incubating with biotinylated antibodies followed by Immunopure HRP-conjugated streptavidin (Pierce, Rockford, Ill.) and the ABTS Microwell Peroxidase Substrate System (Kirkegaard & Perry Laboratories, Gaithersburg, Md.).” left out, “Supernatants were assayed for other cytokines using Pierce SearchLight Multiplex Cytokine array services (Pierce Biotechnology, Woburn, Mass.).” left out

P. acnes = experiment: Scanning and transmission electron microscopy of peptide-treated P. acnes; assay type: cell-based, Propionibacterium acnes; details: 1 hour to 72 hours of peptide treatment (FIG. 2B, 2C)
Description: Electron microscopy. P. acnes at a concentration of 2.08×10^7 bacteria/mL was suspended in 10 mM sodium phosphate buffer pH 7.2 supplemented with 0.03% TSB and incubated with […] granulysin peptides. Samples were then fixed for 30 minutes with 2% gluteraldehyde in 1×PBS, pH=7.35, room temperature, then washed three times and suspended in 1 mL 1×PBS. Scanning EM samples were filtered onto a micropore filter. The filters with the sample on top were dehydrated in graded ethanol; 50, 75, 95 and 100%-15 minutes in each, followed by similar transfers in hexa-methyl-disilazane reagent; 50, 75, 95%-30 minutes each followed by 100% hexa-methyl-disilazane reagent overnight. The scanning EM samples were gold coated and then viewed and photographed on a Cambridge Scanning electron microscope. Transmission EM samples were dehydrated in graded ethanol as above, embedded in Epon, and sectioned on Sorvall MT6000 (RMC, Tucson Ariz.). Thin sections ([…]) were stained with uranyl acetate, viewed and photographed on Jeol XC100 at 80-kV

MDC = experiment: Cytokine array, P. acnes-stimulated monocytes, MDC; assay type: cell-based, human
Description: as §1, with “Capture antibodies were coated to 96-well EIA/RIA plates (Costar, Corning) and detection was achieved by incubating with biotinylated antibodies followed by Immunopure HRP-conjugated streptavidin (Pierce, Rockford, Ill.) and the ABTS Microwell Peroxidase Substrate System (Kirkegaard & Perry Laboratories, Gaithersburg, Md.).” left out, “Supernatants were assayed for other cytokines using Pierce SearchLight Multiplex Cytokine array services (Pierce Biotechnology, Woburn, Mass.).” left out

MCP-1 = experiment: Cytokine array, P. acnes-stimulated monocytes, MCP-1; assay type: cell-based, human
Description: as §1, with “Capture antibodies were coated to 96-well EIA/RIA plates (Costar, Corning) and detection was achieved by incubating with biotinylated antibodies followed by Immunopure HRP-conjugated streptavidin (Pierce, Rockford, Ill.) and the ABTS Microwell Peroxidase Substrate System (Kirkegaard & Perry Laboratories, Gaithersburg, Md.).” left out, “Supernatants were assayed for other cytokines using Pierce SearchLight Multiplex Cytokine array services (Pierce Biotechnology, Woburn, Mass.).” left out

For “TGRSRWRDVSRNFMRRYQSRVIQGLVAGETAQQIS [36-70]”, the “killing of Mycobacterium tuberculosis” value [1] is listed as “capable of killing” and the “killing of Escherichia coli” value (Escherichia coli) is listed as “capable of killing”.

In the case of TRVSRTGRSRWRDVSRNFMR [31-50], the “reduction of the number of viable P. acnes” value [2] is given as 4 logs, the “P. acnes-stimulated production of cytokines and chemokines” value [3] is given as “inhibit” and the “killing of Mycobacterium tuberculosis” value [1] is given as “capable of killing”. For the same sequence, the “killing of Escherichia coli” value (Escherichia coli) was “capable of killing”.

For “GRDYRTSLTIVQKLKKMVDKPTQRSVSNAATRVSR [1-35]”, the “reduction of the number of viable P. acnes” value [2] is given as 2 logs, the “killing of Mycobacterium tuberculosis” value [1] is given as “capable of killing” and the “killing of Escherichia coli” value (Escherichia coli) is given as “capable of killing”.

In the case of TRVSRTGRSRWRDWSRNFMR [31-50v44w], the “fewer bacteria as compared to incubation with peptide 31-50” value ([2]; 32 μM of peptide (FIG. 2A)) is reported as 2-3 logs, the “production of IP-10” value (IP-10) is reported as “inhibited” and the “P. acnes-stimulated production of cytokines and chemokines” value [3] is reported as “inhibit”. The “P. acnes-stimulated production of IL-12p40” value (IL-12p40) was “decreased”, the “effect on P. acnes surface by scanning and transmission EM” value (P. acnes) was “perturbs the surface integrity of P. acnes” and the “production of MDC” value (MDC) was “inhibited”. The “production of MCP-1” value (MCP-1) was “inhibited”.

With “TRVSRTGRSRWRDWSRNFMR [D-31-50v44w] (all D-amino acids)” the “antimicrobial potency in vitro as compared to 31-50v44w (D versus L form)” value ([2]; P. acnes) was “even greater potency”, the “kind of antimicrobial activity against P. acnes (bacteriostatic or bactericidal)” value ([2]; comparison with widely used antibiotics (FIG. 3C)) was “bactericidal” and the “P. acnes-stimulated production of cytokines and chemokines” value [3] was “decreased; also recorded: inhibit”.
